Measurements: ChEMBL document CHEMBL1133869, “Synthesis and biological activity of L-tyrosine-based PPARgamma agonists with reduced molecular weight” (Bioorg Med Chem Lett, 2001)
pEC50, pKi: −log10 of the molar value.

How the values were obtained:
[1] = target: T1, Peroxisome proliferator-activated receptor gamma (Homo sapiens, UniProt P37231)
T1 sequence (P37231 whole entry): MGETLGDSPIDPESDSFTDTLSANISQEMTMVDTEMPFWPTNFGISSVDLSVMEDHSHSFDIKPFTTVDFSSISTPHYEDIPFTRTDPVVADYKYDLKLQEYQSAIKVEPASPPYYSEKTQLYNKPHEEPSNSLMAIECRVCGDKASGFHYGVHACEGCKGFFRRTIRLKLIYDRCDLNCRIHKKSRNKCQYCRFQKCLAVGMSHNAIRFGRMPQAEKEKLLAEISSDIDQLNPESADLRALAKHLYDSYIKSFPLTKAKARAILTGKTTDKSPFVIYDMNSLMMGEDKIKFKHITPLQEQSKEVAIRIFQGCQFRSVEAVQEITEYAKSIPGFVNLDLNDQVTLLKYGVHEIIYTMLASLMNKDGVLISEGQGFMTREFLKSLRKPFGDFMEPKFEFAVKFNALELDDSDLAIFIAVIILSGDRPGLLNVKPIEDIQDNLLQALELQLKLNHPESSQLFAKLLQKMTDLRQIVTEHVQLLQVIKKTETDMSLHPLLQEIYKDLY
Description: Binding affinity to human Peroxisome proliferator activated receptor gamma using scintillation proximity assay

[2] = target: T1, Peroxisome proliferator-activated receptor gamma; remark: listed apart in the source
Description: Maximal reporter activity against human Peroxisome proliferator activated receptor gamma Gal4 chimeric in transiently transfected CV-1 cells by functional assay.

[3] = target: T2, Peroxisome proliferator-activated receptor alpha (Homo sapiens, UniProt Q07869); experiment: Maximal reporter activity against human Peroxisome proliferator activated receptor alpha Gal4 chimeric in transiently transfected CV-1 cells by functional assay.; type: cell-based
T2 sequence (Q07869 whole entry): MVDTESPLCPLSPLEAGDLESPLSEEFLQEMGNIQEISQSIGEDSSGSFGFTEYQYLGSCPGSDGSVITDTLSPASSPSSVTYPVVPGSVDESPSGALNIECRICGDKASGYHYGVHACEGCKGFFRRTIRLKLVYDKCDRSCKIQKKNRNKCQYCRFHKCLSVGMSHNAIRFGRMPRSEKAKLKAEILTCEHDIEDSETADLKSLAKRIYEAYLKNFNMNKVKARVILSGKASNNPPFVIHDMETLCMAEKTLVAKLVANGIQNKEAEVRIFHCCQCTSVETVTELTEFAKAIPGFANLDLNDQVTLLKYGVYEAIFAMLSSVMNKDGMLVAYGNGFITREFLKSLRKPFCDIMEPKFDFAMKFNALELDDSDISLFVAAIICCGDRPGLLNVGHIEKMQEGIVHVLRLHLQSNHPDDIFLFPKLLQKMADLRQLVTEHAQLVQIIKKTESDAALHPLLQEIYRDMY

Rattus norvegicus [4] = experiment: In vivo efficacy expressed as increase in HDL-cholesterol after at a dose of 10 mg/kg, oral, for 14 days in male rats; type: functional
Rattus norvegicus [5] = experiment: In vivo efficacy expressed as reduction in fasting serum triglycerides at a dose of 10 mg/kg, oral, for 14 days in male rats; type: functional
[6] = target: T3, Peroxisome proliferator-activated receptor delta (Homo sapiens, UniProt Q03181); experiment: Concentration that gave 50% of maximal reporter activity against human Peroxisome proliferator activated receptor delta Gal4 chimeric in transiently transfected CV-1 cells by functional assay.; type: cell-based
T3 sequence (Q03181 whole entry): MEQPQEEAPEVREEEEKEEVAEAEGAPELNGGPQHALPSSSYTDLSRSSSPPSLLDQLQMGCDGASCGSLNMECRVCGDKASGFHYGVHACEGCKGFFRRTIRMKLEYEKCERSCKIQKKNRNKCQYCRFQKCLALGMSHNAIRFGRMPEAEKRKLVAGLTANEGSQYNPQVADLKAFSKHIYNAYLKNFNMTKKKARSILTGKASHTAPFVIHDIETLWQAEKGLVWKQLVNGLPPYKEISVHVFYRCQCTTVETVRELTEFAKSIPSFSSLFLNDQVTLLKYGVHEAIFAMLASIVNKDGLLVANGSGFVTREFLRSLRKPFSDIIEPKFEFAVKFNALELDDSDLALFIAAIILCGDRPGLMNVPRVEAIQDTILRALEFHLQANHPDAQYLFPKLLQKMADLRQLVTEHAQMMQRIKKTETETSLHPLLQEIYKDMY

Rattus norvegicus [7] = experiment: In vivo efficacy expressed as reduction in fasting plasma glucose at a dose of 10 mg/kg, oral, for 14 days in male rats; type: functional
[8] = target: T3, Peroxisome proliferator-activated receptor delta; experiment: Binding affinity to bind to human Peroxisome proliferator activated receptor delta using scintillation proximity assay

Cc1oc(-c2ccccc2)nc1CCOc1ccc(C[C@@H](C(=O)O)N(C)C)cc1
pKi [1]: 6.07
pEC50 [2]: 6.39

Cc1oc(-c2ccccc2)nc1CCOc1ccc(C[C@@H](C(=O)O)N2CCCCC2)cc1
pKi [1]: 6.32
pEC50 [2]: 6.86

Cc1oc(-c2ccccc2)nc1CCOc1ccc(C[C@@H](C(=O)O)N2CCOCC2)cc1
pKi [1]: 6.80
pEC50 [2]: 7.62
pEC50 [3]: 5.16

Cc1oc(-c2ccccc2)nc1CCOc1ccc(C[C@H](NS(C)(=O)=O)C(=O)O)cc1
pKi [1]: 6.21
pEC50 [2]: 5.59

CN[C@@H](Cc1ccc(OCCc2nc(-c3ccccc3)oc2C)cc1)C(=O)O
pKi [1]: 5.68
pEC50 [2]: 5.30

Cc1oc(-c2ccccc2)nc1CCOc1ccc(C[C@@H](C(=O)O)n2cccc2)cc1
Increase (Rattus norvegicus [4]): 31%
Reduction (Rattus norvegicus [5]): 24%
pEC50 [6]: 5.42
Reduction (Rattus norvegicus [7]): 40%
pKi [8]: 5.60

Cc1oc(-c2ccccc2)nc1CCOc1ccc(C[C@H](Nc2ncccn2)C(=O)O)cc1
pKi [1]: 6.55
pEC50 [2]: 6.23

Cc1oc(-c2ccccc2)nc1CCOc1ccc(C[C@H](Nc2ccccc2C(=O)c2ccccc2)C(=O)O)cc1 [FARGLITAZAR]
pKi [8]: 5.92

Cc1oc(-c2ccccc2)nc1CCOc1ccc(C[C@@H](C(=O)O)n2c(C)ccc2C)cc1
pKi [1]: 6.01
pEC50 [2]: 6.15

CCCN[C@@H](Cc1ccc(OCCc2nc(-c3ccccc3)oc2C)cc1)C(=O)O
pKi [1]: 7.28
pEC50 [2]: 6.62

Cc1oc(-c2ccccc2)nc1CCOc1ccc(C[C@@H](C(=O)O)N2CCCC2)cc1
pKi [1]: 6.44
pEC50 [2]: 6.41

CC(=O)N[C@@H](Cc1ccc(OCCc2nc(-c3ccccc3)oc2C)cc1)C(=O)O
pKi [1]: 5.59
pEC50 [2]: 5.46
